Where a SMILES comes first, the peptide text is derived from it. [ ]: non-standard residue; d: D form. The star is where a group is joined. ξ: configuration not given here. Tyr(3-NO2) = N[C@@H](Cc1ccc(O)c([N+](=O)[O-])c1)C(=O)O; C16 diacid = O=C(O)CCCCCCCCCCCCCCC(=O)*; 1Nal = N[C@@H](Cc1cccc2ccccc12)C(=O)O; Cha = N[C@@H](CC1CCCCC1)C(=O)O; Ile(3ξ) = CCC(C)[C@H](N)C(=O)O; aThr = C[C@H](O)[C@H](N)C(=O)O; Fumaroyl = O=C(O)/C=C/C(=O)*; 12Ado = NCCCCCCCCCCCC(=O)O
Assays:
[1] = molecular target: T1, Human immunodeficiency virus type 1 protease (Human immunodeficiency virus 1, UniProt Q72874); test: Inhibitory activity against Human immunodeficiency virus-1 protease
[2] = molecular target: T1, Human immunodeficiency virus type 1 protease; test: Binding activity towards Human immunodeficiency virus-1 protease
[3] = molecular target: Human immunodeficiency virus type 1 protease (Human immunodeficiency virus 1) (UniProt Q72874); test: Percent inhibition against Human immunodeficiency virus-1 protease at the concentration of 100 uM

IC50 [1]	Ki [2]	inhibition [3]	SMILES
11 µM	–	–	CC(C)C[C@H](NC(=O)CCCCCCCCCCCCCCC(=O)N[C@@H](CC(N)=O)C(=O)N[C@@H](Cc1ccccc1)C(=O)O)C(=O)N[C@@H](Cc1ccccc1)C(N)=O (HELM PEPTIDE1{L.F.[am]}|PEPTIDE2{N.F}|CHEM1{[O=C(CCCCCCCCCCCCCCC(=O)[*:2])[*:1]]}$PEPTIDE1,CHEM1,1:R1-1:R1|PEPTIDE2,CHEM1,1:R1-1:R2$$$V2.0)
12 µM	4.9 µM	–	CCC(C)[C@H](NC(=O)CCCCCCCCCCCNC(=O)[C@@H](NC(=O)[C@H](Cc1ccccc1)NC(=O)/C=C/C(=O)O)C(N)=O)C(=O)N[C@@H](Cc1ccccc1)C(N)=O (stereo partly drawn)
–	–	35%	CCC(C)[C@H](NC(=O)CCCCCCCCCCCNC(=O)[C@@H](NC(=O)[C@@H](N)Cc1ccccc1)C(N)=O)C(=O)N[C@@H](Cc1ccccc1)C(N)=O (stereo partly drawn)
–	–	< 20%	NC(=O)[C@H](Cc1ccc(O)c([N+](=O)[O-])c1)NC(=O)[C@H](CC1CCCCC1)NC(=O)/C=C/C(=O)O
5.4 µM	3 µM	–	CC(C)C[C@H](NC(=O)[C@@H](NC(=O)CCCCCCCCCCCCCCC(=O)N[C@@H](CC(N)=O)C(=O)N[C@@H](Cc1ccccc1)C(=O)O)[C@H](C)O)C(=O)N[C@@H](Cc1ccccc1)C(N)=O ({Phe-Asn-C16 diacid}-[aThr]-Leu-Phe-NH2)
16.8 µM	–	–	CCC(C)[C@H](NC(=O)CCCCCCCCCCCNC(=O)CNC(=O)[C@@H](CC(N)=O)NC(=O)[C@H](Cc1ccccc1)NC(=O)/C=C/C(=O)O)C(=O)N[C@@H](Cc1ccccc1)C(N)=O (stereo partly drawn)
327 µM	199 µM	–	CCC(C)[C@H](NC(=O)CCCCCCCCCCCNC(=O)[C@H](Cc1ccc(O)c([N+](=O)[O-])c1)NC(=O)[C@H](CC1CCCCC1)NC(=O)/C=C/C(=O)O)C(=O)N[C@@H](Cc1ccccc1)C(N)=O (stereo partly drawn) (Fumaroyl-[Cha][Tyr(3-NO2)][12Ado][Ile(3ξ)]F-NH2)
9.7 µM	–	–	CCC(C)[C@H](NC(=O)CCCCCCCCCCCNC(=O)[C@H](NC(=O)[C@@H](Cc1ccccc1)NC(=O)/C=C/C(=O)O)C(N)=O)C(=O)N[C@@H](Cc1ccccc1)C(N)=O (stereo partly drawn)
–	–	< 50%	CCC(C)[C@H](NC(=O)CCCCCCCCCCCNC(=O)[C@@H](NC(=O)[C@H](Cc1ccccc1)NC(=O)CCC(=O)O)C(N)=O)C(=O)N[C@@H](Cc1ccccc1)C(N)=O (stereo partly drawn)
18.8 µM	–	–	CCC(C)[C@H](NC(=O)CCCCCCCCCCCNC(=O)[C@@H](NC(=O)[C@@H](Cc1ccccc1)NC(=O)/C=C/C(=O)O)C(N)=O)C(=O)N[C@@H](Cc1ccccc1)C(N)=O (stereo partly drawn)

The next lines start with the molecule.

SMILES	IC50 [1]	Ki [2]	inhibition [3]
CCC(C)[C@H](NC(=O)CCCCCCCCCCCNC(=O)[C@H](NC(=O)[C@H](Cc1ccccc1)NC(=O)/C=C/C(=O)O)C(N)=O)C(=O)N[C@@H](Cc1ccccc1)C(N)=O (stereo partly drawn)	14.2 µM	–	–
CC[C@H](C)[C@H](NC(=O)[C@H](CCC(N)=O)NC(=O)[C@@H]1CCCN1C(=O)CCCCCCCCCCCCCCC(=O)N[C@@H](CO)C(=O)N[C@H](C(=O)N[C@@H](CC(C)C)C(=O)N[C@@H](CC(N)=O)C(=O)N[C@@H](Cc1ccccc1)C(=O)O)[C@@H](C)O)C(=O)N[C@H](C(=O)N[C@@H](CC(C)C)C(=O)N[C@@H](Cc1c[nH]c2ccccc12)C(=O)O)[C@H](C)O	0.35 µM	0.22 µM	–
CCC(C)[C@H](NC(=O)CCCCCCCCCCCNC(=O)[C@H](Cc1ccc(O)c([N+](=O)[O-])c1)NC(=O)[C@H](CC1CCCCC1)NC(=O)/C=C/C(=O)O)C(=O)N[C@@H](Cc1cccc2ccccc12)C(N)=O (stereo partly drawn) (Fumaroyl-[Cha][Tyr(3-NO2)][12Ado][Ile(3ξ)][1Nal]-NH2)	361 µM	209 µM	–
CCC(C)[C@H](NC(=O)CCCCCCCCCCCNC(=O)[C@@H](NC(=O)[C@H](Cc1ccccc1)NC(C)=O)C(N)=O)C(=O)N[C@@H](Cc1ccccc1)C(N)=O (stereo partly drawn)	–	–	15%
CCC(C)[C@H](NC(=O)CCCCCCCCCCCNC(=O)[C@H](Cc1ccc(O)c([N+](=O)[O-])c1)NC(=O)[C@H](CC1CCCCC1)NC(=O)/C=C/C(=O)O)C(N)=O (stereo partly drawn)	3.7 µM	–	–
NC(=O)CCCCCCCCCCCNC(=O)[C@H](Cc1ccc(O)c([N+](=O)[O-])c1)NC(=O)[C@H](CC1CCCCC1)NC(=O)/C=C/C(=O)O	20 µM	–	–
CCC(C)[C@H](NC(=O)CCCCCCCCCCCNC(=O)[C@H](Cc1ccc(O)c([N+](=O)[O-])c1)NC(=O)[C@H](CC1CCCCC1)NC(=O)/C=C/C(=O)O)C(=O)N[C@@H](Cc1ccc(O)c([N+](=O)[O-])c1)C(N)=O (stereo partly drawn) (Fumaroyl-[Cha][Tyr(3-NO2)][12Ado][Ile(3ξ)][Tyr(3-NO2)]-NH2)	247 µM	222 µM	–

— ChEMBL document CHEMBL1137166, “A unidirectional crosslinking strategy for HIV-1 protease dimerization inhibitors” (Bioorg Med Chem Lett, 2004)
